Patent US20170231957A1, “INJECTABLE FORMULATIONS OF ASENAPINE” (ALRISE Biosystems GmbH, priority 2014, published 2017)
Where a name gives a salt, the structure may show the parent alone. Read-outs that look alike come from different tables or passages of the source. Blank lines part the entries; values can stand above or below the molecule they belong to.

What was measured:
[1] = 20° C.; cited from earlier work
[2] = Solubility of asenapine maleate in a variety of solvents; format: physicochemical; conditions: organic solvent or mixture, read-out: solubility of asenapine maleate, Concentration
Protocol: The asenapine or a pharmaceutically acceptable salt thereof is dissolved in the organic phase or dispersed as a solid in the organic phase. In order to effectively dissolve the asenapine or a pharmaceutically acceptable salt thereof in the organic phase, a solution of the active principle in a solvent S2 can be provided, and this solution can be combined with the solution of the polymer in the organic solvent S1. It will be understood that, in this case, the solvents S1 and S2 should be different solvents. It is also possible to add the active principle to the solvent S2 in an amount that only a part of it is dissolved in S2, and a part of it remains dispersed as a solid in the solvent S2. Using the process described herein, the active principle can also be encapsulated/embedded in the polymer at a high efficiency in this case. […] Nevertheless, the following table summarizes the solubility of asenapine maleate in a variety of solvents.

[3] = cited from earlier work
[4] = tested on: serotonin receptors; conditions: rank among receptor classes; cited from earlier work
[5] = tested on: muscarinic receptors; conditions: cited from earlier work

Molecule: CC(C)=O [acetone]
- solubility in water [1]: soluble

- solubility ([2]; DMSO): 700 mg/mL
- solubility ([2]; THF): 100 mg/mL
- solubility ([2]; solvent EMK): 50 mg/mL
- solubility ([2]; solvent NMP): 700 mg/mL
- solubility ([2]; solvent acetone): 67 mg/mL
- solubility ([2]; solvent benzyl alcohol): 500 mg/mL
- solubility ([2]; solvent benzyl benzoate): 7 mg/mL
- solubility ([2]; solvent dimethycarbonate): 7 mg/mL
- solubility ([2]; solvent dimethylacetamide): 500 mg/mL
- solubility ([2]; solvent ethanol): 100 mg/mL
- solubility ([2]; solvent ethyl acetate): 10 mg/mL
- solubility ([2]; solvent ethyl benzoate): 10 mg/mL
- solubility ([2]; solvent ethyl formate): 100 mg/mL
- solubility ([2]; solvent glycofurol): 270 mg/mL
- solubility ([2]; solvent isopropanol): 7 mg/mL
- solubility ([2]; solvent isopropyl acetate): 9 mg/mL
- solubility ([2]; solvent isopropyl formate): 100 mg/mL
- solubility ([2]; solvent methyl acetate): 25 mg/mL
- solubility ([2]; solvent methyl benzoate): 20 mg/mL
Molecule: CN1CC2c3ccccc3Oc3ccc(Cl)cc3C2C1 (stereo not shown) [asenapine maleate]

Molecule: CN1CC2c3ccccc3Oc3ccc(Cl)cc3C2C1 (stereo not drawn) [asenapine, trans-5-chloro-2,3,3a,12b-tetrahydro-2-methyl-1-H-dibenz[2,3:6,7]oxepino[4,5-c]pyrrole]
- bioavailability ([3]; oral formulations): 2%
- bioavailability ([3]; sublingual tablets): 35%
- affinity for blocking serotonin receptors [4]: highest affinity
- affinity for muscarinic receptors [5]: minimal affinity

Molecule: glycofurol
- solubility in water [1]: soluble
